# Where two headings read alike, the source gives them in different places.
# How the values were obtained:
# [1] = system: wild-type yeast alcohol dehydrogenase; details: cited from earlier work
# H44R/H48Q yeast ADH [2] = target: T1, H44R/H48Q yeast ADH (Saccharomyces cerevisiae, UniProt P00330, H45R/H49Q); format: biochemical; details: for VD1, isotope effect for oxidation of ethanol: 550 mM ethanol, 2 mM NAD^+, single concentration, duplicate
# [3] = target: H44R/H48Q yeast alcohol dehydrogenase (Saccharomyces cerevisiae, UniProt P00330, H45R/H49Q)
# Sequence of H44R/H48Q yeast alcohol dehydrogenase (P00330 2-348 H45R/H49Q): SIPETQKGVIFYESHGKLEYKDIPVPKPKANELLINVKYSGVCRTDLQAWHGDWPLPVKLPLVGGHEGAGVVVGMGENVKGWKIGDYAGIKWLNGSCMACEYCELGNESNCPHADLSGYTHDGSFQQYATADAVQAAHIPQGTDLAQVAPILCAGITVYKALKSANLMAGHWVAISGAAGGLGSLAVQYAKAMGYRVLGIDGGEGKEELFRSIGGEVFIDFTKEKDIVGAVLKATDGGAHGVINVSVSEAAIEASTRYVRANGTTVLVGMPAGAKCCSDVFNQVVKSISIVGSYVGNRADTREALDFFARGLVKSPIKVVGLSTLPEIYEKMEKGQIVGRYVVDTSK
# wild-type yeast ADH [4] = target: T2, wild-type yeast ADH (Saccharomyces cerevisiae, UniProt P00330); details: cited from earlier work
# T2 sequence (P00330 1-348): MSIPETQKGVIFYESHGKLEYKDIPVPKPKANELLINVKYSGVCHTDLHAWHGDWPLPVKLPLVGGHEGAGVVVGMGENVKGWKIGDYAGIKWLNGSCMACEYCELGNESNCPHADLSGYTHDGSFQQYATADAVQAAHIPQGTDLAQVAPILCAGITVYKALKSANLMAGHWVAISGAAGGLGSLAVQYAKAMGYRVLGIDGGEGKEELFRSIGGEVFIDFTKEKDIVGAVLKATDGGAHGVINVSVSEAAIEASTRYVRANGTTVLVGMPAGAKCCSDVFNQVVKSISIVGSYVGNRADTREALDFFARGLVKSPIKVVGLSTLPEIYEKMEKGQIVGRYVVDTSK
# [5] = system: H48Q yeast alcohol dehydrogenase; details: pH 7.3, 30 °C, cited from earlier work
# [6] = system: H44R yeast alcohol dehydrogenase; details: pH 7.3, 30 °C, cited from earlier work
# H44R/H48Q yeast ADH [7] = target: T1, H44R/H48Q yeast ADH; format: biochemical
# H44R/H48Q yeast ADH [8] = target: T1, H44R/H48Q yeast ADH; experiment: Inactivation by diethyl pyrocarbonate; format: biochemical; details: pH 8.0, 30 °C
# wild-type yeast ADH [9] = target: T2, wild-type yeast ADH; details: cited from earlier work; remark: listed apart in the source
# wild-type yeast ADH [10] = target: T2, wild-type yeast ADH; experiment: Inactivation by diethyl pyrocarbonate; format: biochemical; details: pH 8.0, 30 °C
# H44R yeast ADH [11] = target: T3, H44R yeast ADH (Saccharomyces cerevisiae, UniProt P00330, H45R); experiment: Inactivation by diethyl pyrocarbonate; format: biochemical; details: pH 8.0, 30 °C
# T3 sequence (P00330 2-348 H45R): as the sequence (P00330 2-348 H45R/H49Q) above, with Q48H counted along it
# H48Q yeast ADH [12] = target: T4, H48Q yeast ADH (Saccharomyces cerevisiae, UniProt P00330, H49Q); experiment: Inactivation by diethyl pyrocarbonate; format: biochemical; details: pH 8.0, 30 °C
# T4 sequence (P00330 2-348 H49Q): as the sequence (P00330 2-348 H45R/H49Q) above, with R44H counted along it
# H44R yeast ADH [13] = target: T3, H44R yeast ADH; details: ethanol or ethanol-d5 15–200 mM, 10 mM NAD^+, 30 °C, ref 6 and 9, cited from earlier work
# H48Q yeast ADH [14] = target: T4, H48Q yeast ADH; details: ethanol or ethanol-d5 15–200 mM, 10 mM NAD^+, 30 °C, ref 6 and 9, cited from earlier work
# wild-type yeast ADH [15] = target: T2, wild-type yeast ADH; details: ethanol or ethanol-d5 15–200 mM, 10 mM NAD^+, 30 °C, ref 6 and 9, cited from earlier work
# [16] = pH 7.3, 30 °C, 83 mM potassium phosphate, 40 mM KCl
# [17] = read-out: Kiq, inhibition (dissociation) constant for NADH, pH 7.3, 30 °C, 83 mM potassium phosphate, 40 mM KCl
# [18] = 83 mM potassium phosphate, 40 mM KCl
# [19] = read-out: Kiq, inhibition (dissociation) constant for NADH, 83 mM potassium phosphate, 40 mM KCl
# [20] = read-out: Kia, inhibition (dissociation) constant for NAD^+, 83 mM potassium phosphate, 40 mM KCl
# [21] = 90 μM diethyl pyrocarbonate, 33 mM sodium phosphate buffer
# [22] = after 90 μM diethyl pyrocarbonate
# T1 sequence (P00330 2-348 H45R/H49Q): as the sequence (P00330 2-348 H45R/H49Q) above
smiles,measurement,setting,value
CCCCO [1-butanol],"Catalytic efficiency with butanol, fold lower than with ethanol",[1],about 20 fold
same,"average isotope effect, butanol oxidation","H44R/H48Q yeast ADH [2]; 5 mM 1-butanol or 1-butanol-d9, 2 mM NAD^+, pH range from 6.5 to 10.5",4.2
same,"Catalytic efficiency with butanol, fold lower than with ethanol",[3],about 20 fold
same,Km,[3]; 1-butanol,~30 mM
NC(=O)C1=CN([C@@H]2O[C@H](COP(=O)([O-])OP(=O)([O-])OC[C@H]3O[C@@H](n4cnc5c(N)ncnc54)[C@H](O)[C@@H]3O)[C@@H](O)[C@H]2O)C=CC1.[Na+].[Na+] [NADH],"Kiq, limiting value ka",wild-type yeast ADH [4]; EH form,15 ± 2 µM
same,"V2/Etkq, limiting value",wild-type yeast ADH [4],32 ± 3 µM⁻¹ s⁻¹
same,pK of pH dependence of Kiq,wild-type yeast ADH [4],7.4 ± 0.2
same,pK of pH dependence of V2/Etkq,wild-type yeast ADH [4],7.8 ± 0.2
same,"Kq, Michaelis constant for NADH",[1]; [16],94 pM
same,Ki,[1]; [17],31 µM
same,"Kq, Michaelis constant for NADH",[5]; [18],110 pM
same,Ki,[5]; [19],13 µM
same,"Kq, Michaelis constant for NADH",[6]; [18],10 pM
same,Ki,[6]; [19],16 µM
same,"Kq, Michaelis constant for NADH",[3]; [16],42 pM
same,Ki,[3]; [17],3.5 µM
same,pK of pH dependence of Kiq,H44R/H48Q yeast ADH [7],8.9 ± 0.2
same,pK of pH dependence of V2/Etkq,H44R/H48Q yeast ADH [7],8.8 ± 0.1
same,"Kiq, limiting value ka",H44R/H48Q yeast ADH [7]; EH form,ka 7.9 ± 1.4 μM
same,"V2/Etkq, limiting value ka",H44R/H48Q yeast ADH [7]; EH form,ka 16 ± 2 μM^−1s^−1
same,"rate constant for dissociation, calculated from V2Kiq/EtKq",H44R/H48Q yeast ADH [7]; essentially pH independent,120 s⁻¹
N=C([O-])c1ccc[n+]([C@@H]2O[C@H](COP(=O)(O)OP(=O)([O-])OC[C@H]3O[C@@H](n4cnc5c(N)ncnc54)[C@H](O)[C@@H]3O)[C@@H](O)[C@H]2O)c1.[Li+] [NAD^+],"Kia, limiting value ka",wild-type yeast ADH [4]; EH form,0.54 ± 0.06 mM
same,V1/EtKa,wild-type yeast ADH [4]; at pH 7,1570 (at pH 7) mM^−1s^−1
same,pK of pH dependence of Kia,wild-type yeast ADH [4],8.1 ± 0.2
same,slope of pH dependence of V1/EtKa,wild-type yeast ADH [4],−0.11 ± 0.02
same,"Ka, Michaelis constant for NAD^+",[1]; [16],160 µM
same,Ki,"[1]; read-out: Kia, inhibition (dissociation) constant for NAD^+, pH 7.3, 30 °C, 83 mM potassium phosphate, 40 mM KCl",950 µM
same,"Ka, Michaelis constant for NAD^+",[5]; [18],100 µM
same,Ki,[5]; [20],410 µM
same,"Ka, Michaelis constant for NAD^+",[6]; [18],150 µM
same,Ki,[6]; [20],260 µM
same,"Ka, Michaelis constant for NAD^+",[3]; [16],320 µM
same,pK of pH dependence of Kia,H44R/H48Q yeast ADH [7],~pH independent
same,pK of pH dependence of V1/EtKa,H44R/H48Q yeast ADH [7],8.03 ± 0.04
same,Ki,"H44R/H48Q yeast ADH [7]; read-out: Kia, at pH 7",160 µM
CC=O [acetaldehyde],"V1/EtKp, limiting value ka","wild-type yeast ADH [4]; EH form, NADH and acetaldehyde",ka 3200 ± 200 mM^−1s^−1
same,"V2/Et, limiting value ka",wild-type yeast ADH [4]; EH form,3600 ± 300 s⁻¹
same,pK of pH dependence of V1/EtKp,wild-type yeast ADH [4]; NADH and acetaldehyde,7.7 ± 0.1
same,pK of pH dependence of V2/Et,wild-type yeast ADH [4],7.8 ± 0.2
same,V2/EtkpKiq,"[1]; NADH and acetaldehyde, pH 7.3, 30 °C",77000 mM^−2 s^−1
same,"Kp, Michaelis constant for acetaldehyde",[1]; [16],0.74 mM
same,"V2/Et, turnover number for acetaldehyde reduction",[1]; [16],1800 s⁻¹
same,Ki,"[1]; read-out: Kip, intercept inhibition constant, product inhibition studies, pH 7.3, 30 °C",1500 µM
same,V2/EtkpKiq,[5]; NADH and acetaldehyde,19000 mM^−2 s^−1
same,"Kp, Michaelis constant for acetaldehyde",[5]; [18],12 mM
same,"V2/Et, turnover number for acetaldehyde reduction",[5]; [18],3000 s⁻¹
same,"V2/Etkp, catalytic efficiency for acetaldehyde reduction",[5]; [18],250 mM⁻¹ s⁻¹
same,"isotope effect (for VD2/Kp), acetaldehyde reduction","H44R/H48Q yeast ADH [2]; 1 mM acetaldehyde with 0.15 mM NADH, over the pH range",~ 2
same,V2/EtkpKiq,[6]; NADH and acetaldehyde,6100 mM^−2 s^−1
same,"Kp, Michaelis constant for acetaldehyde",[6]; [18],4.7 mM
same,"V2/Et, turnover number for acetaldehyde reduction",[6]; [18],460 s⁻¹
same,"V2/Etkp, catalytic efficiency for acetaldehyde reduction",[6]; [18],98 mM⁻¹ s⁻¹
same,"Kp, Michaelis constant for acetaldehyde",[3]; [16],22 mM
same,"V2/Et, turnover number for acetaldehyde reduction",[3]; [16],1040 s⁻¹
same,"V2/Etkp, catalytic efficiency for acetaldehyde reduction",[3]; [16],47 mM⁻¹ s⁻¹
same,pK of pH dependence of V2/Et,H44R/H48Q yeast ADH [7],9.6 ± 0.1
same,"V2/Et, limiting value ka",H44R/H48Q yeast ADH [7]; EH form,ka 850 ± 60 s^−1
same,"V1/EtKp, limiting value ka","H44R/H48Q yeast ADH [7]; EH form, NADH and acetaldehyde",ka 32 ± 3 mM^−1s^−1
same,pK of pH dependence of V1/EtKp,H44R/H48Q yeast ADH [7]; NADH and acetaldehyde,9.5 ± 0.1
CCOC(=O)OC(=O)OCC [diethyl pyrocarbonate],Inactivation constant,"H44R/H48Q yeast ADH [8]; 120 μM diethyl pyrocarbonate, 33 mM sodium phosphate buffer",11 M⁻¹ s⁻¹
same,Residual activity (% of initial),H44R/H48Q yeast ADH [8]; after 120 μM diethyl pyrocarbonate,64 % of initial
same,pK of the rate of inactivation by diethyl pyrocarbonate,wild-type yeast ADH [9]; enzyme-NADH complex,8.7
same,pK value of the rate of inactivation by diethyl pyrocarbonate,wild-type yeast ADH [9]; free enzyme,7.1
same,Inactivation constant,wild-type yeast ADH [10]; [21],180 M⁻¹ s⁻¹
same,Residual activity (% of initial),wild-type yeast ADH [10]; [22],3.1 % of initial
same,Inactivation constant,H44R yeast ADH [11]; [21],31 M⁻¹ s⁻¹
same,Residual activity (% of initial),H44R yeast ADH [11]; [22],30 % of initial
same,Inactivation constant,H48Q yeast ADH [12]; [21],25 M⁻¹ s⁻¹
same,Residual activity (% of initial),H48Q yeast ADH [12]; [22],55 % of initial
CCO [ethanol],"V1/EtKb, limiting value ka",wild-type yeast ADH [4]; EH form,3500 ± 900 M⁻¹ s⁻¹
same,pK of pH dependence of V1/Et,wild-type yeast ADH [4],7.3 ± 0.1
same,pK of pH dependence of V1/EtKb,wild-type yeast ADH [4],7.8 ± 0.2
same,"V1/Et, turnover number for ethanol oxidation",[1]; [16],360 s⁻¹
same,"V1/Et, turnover number for ethanol oxidation",[5]; [18],30 s⁻¹
same,"VD1, isotope effect for oxidation of ethanol",H44R yeast ADH [13]; pH 6,3.5
same,"VD1, isotope effect for oxidation of ethanol",H44R yeast ADH [13]; pH 7,1.7
same,"VD1, isotope effect for oxidation of ethanol",H44R yeast ADH [13]; pH 8,1.2
same,"VD1, isotope effect for oxidation of ethanol",H44R yeast ADH [13]; pH 9,1.1
same,"VD1, isotope effect for oxidation of ethanol",H44R yeast ADH [13]; pH 10,1.1
same,"VD1, isotope effect for oxidation of ethanol",H48Q yeast ADH [14]; pH 6,3.9
same,"VD1, isotope effect for oxidation of ethanol",H48Q yeast ADH [14]; pH 7,4.2
same,"VD1, isotope effect for oxidation of ethanol",H48Q yeast ADH [14]; pH 8,3.3
same,"VD1, isotope effect for oxidation of ethanol",H48Q yeast ADH [14]; pH 9,2.9
same,"VD1, isotope effect for oxidation of ethanol",H48Q yeast ADH [14]; pH 10,2.3
same,"VD1, isotope effect for oxidation of ethanol",H44R/H48Q yeast ADH [2]; pH 6 (MES),2.8
same,"VD1, isotope effect for oxidation of ethanol",H44R/H48Q yeast ADH [2]; pH 7 (MOPS),4.2
same,"VD1, isotope effect for oxidation of ethanol",H44R/H48Q yeast ADH [2]; pH 8 (TAPS),2.9
same,"VD1, isotope effect for oxidation of ethanol",H44R/H48Q yeast ADH [2]; pH 9 (TAPS),2.3
same,"VD1, isotope effect for oxidation of ethanol",H44R/H48Q yeast ADH [2]; pH 10 (CAPSO),1.8
same,"V1/Et, turnover number for ethanol oxidation",[6]; [18],60 s⁻¹
same,"V1/Et, turnover number for ethanol oxidation",[3]; [16],24 s⁻¹
same,"KbKia/Ka, slope inhibition constant","[3]; product inhibition studies, pH 7.3, 30 °C",36 mM
same,pK of pH dependence of V1/EtKb,H44R/H48Q yeast ADH [7],8.5 ± 0.1
same,pK1 of pH dependence of V1/Et,"H44R/H48Q yeast ADH [7]; deprotonation of H2E, NAD^+ and ethanol",7.0 ± 0.2
same,pK2 of pH dependence of V1/Et,"H44R/H48Q yeast ADH [7]; deprotonation of HE, NAD^+ and ethanol",9.2 ± 0.3
same,"VD1, isotope effect for oxidation of ethanol",wild-type yeast ADH [15]; pH 6,2.0
same,"VD1, isotope effect for oxidation of ethanol",wild-type yeast ADH [15]; pH 7,1.8
same,"VD1, isotope effect for oxidation of ethanol",wild-type yeast ADH [15]; pH 8,1.8
same,"VD1, isotope effect for oxidation of ethanol",wild-type yeast ADH [15]; pH 9,1.4
same,"VD1, isotope effect for oxidation of ethanol",wild-type yeast ADH [15]; pH 10,1.3

# Reference: article PMC11090211 (Chemico-biological interactions, 2024)
